{"source": "patent US9890176B2", "about": "“Mannose derivatives for treating bacterial infections” (Vertex Pharmaceuticals Incorporated, priority 2013, dated 2018)", "data": [{"system": "bacterial strain LF82 binding to the glycoprotein BSA-(Mannose)3", "test": "Bacterial Binding Assay (BBA)", "type": "cell-based, Escherichia coli", "conditions": "read-out: Bacterial Binding Assay IC50", "description": "The purpose of the Bacterial Binding Assay (BBA) is to determine the inhibition activity of selective FimH antagonists on the bacterial strain LF82 binding to the glycoprotein BSA-(Mannose)3.\nBelow is a list of the Materials used to run the BBA are described below. • 1. LB broth: Supplier: Gibco, #10855 • 2. D-PBS: Supplier: Wisent, #311-425-CL • 3. LB agar plates • 4. 96-well black plate (high binding): Supplier: Costar, #3925 • 5. TopSeal™-A adhesive sealing films; Supplier PerkinElmer, #6005185 • 6. Carbonate-bicarbonate buffer pH 9.6 tablets, Supplier: Medicago, #09-8922-24 • 7. Water, Supplier: Gibco, #15230-162 • 8. Bovine serum albumin (BSA): Supplier: Sigma, #A-7888 • 9. (Man)-3-BSA (α1-3, α1-6 Mannotriose-BSA, 1 mg), V-Labs, #NGP1336, lot#HGDX37-169-1 • 10. Tween 20: Supplier: Sigma, #P9416 • 11. Bright-Glo Luciferase Assay System: Supplier: Promega, #E2610 • 12. LF82/Luciferase strain: Invasive ability of an Escherichia coli strain isolated from the ileal mucosa of a patient with Crohn's disease. Boudeau J, Glasser A L, Masseret E, Joly B, Darfeuille-Michaud A, Infect Immun. 1999, 67(9), 4499-509\nSolutions and buffers used to run the BBA are described below. • 1. 0.04M carbonate-bicarbonate buffer (coating buffer) • 2. […] 1 mg of (Man)-3-BSA in 25 mL of water. • 3. 4000 ng/mL BSA • 4. 40 ng/mL BSA • 5. 1 μg/mL BSA-(Man)3: 150 μL of 40 ng/mL BSA-(Man)3+5.85 mL of 40 ng/mL BSA • 6. 0.5 μg/mL BSA-(Man)3 in 0.02M carbonate-bicarbonate buffer. • 7. 20 ng/mL BSA in 0.02M carbonate-bicarbonate buffer • 8. Blocking buffer (2% BSA/DPBS): 1 g of BSA in 50 mL D-PBS • 9. 2× binding buffer (0.2% BSA/D-PBS): 5 mL of blocking buffer+45 mL D-PBS. • 10. Washing buffer (D-PBS/0.01% Tween 20): 10 μL of Tween 20 in 100 mL D-PBS. • 11. 1× Bright-Glo Luciferase substrate:Dilute 1:1 the Bright-Glo Luciferase Assay System with D-PBS The experimental protocol to run the BBA is described below.\nOvernight culture of LF82/Luciferase strain: Into two Falcon 50 mL tubes, add 20 mL of LB+20 μL of 50 mg/mL Kanamycin and inoculate with a loop from glycerol stock of the LF82/Luciferase strain. Incubate overnight at 37° C. with no shaking.\nGlycoprotein coating of 96-well plates: Add 100 μL/well of 0.5-2 μg/mL BSA-(Man)3. 20 μg/mL BSA is used as the control background. Seal plate using an adhesive sealing film and incubate overnight at room temperature. Wash the 96-well plate three times with 150 μL/well of D-PBS, add 170 μL/well of blocking solution and incubate 45 min (minimum) at room temperature.\nPreparation of bacterial suspension: Mix the two cultures tubes (40 mL) and perform a 1:10 dilution in LB (900 μl LB+100 μl culture. Measure optical density (OD) of the bacterial cultures. OD1 ˜5×10^8 cells/mL. Centrifuge LF82 culture for 20 min at 3500 rpm at room temperature. Re-suspend bacterial pellet in D-PBS and centrifuge again for 20 min at 3500 rpm. Re-suspend bacterial pellet in D-PBS to obtain a bacterial concentration of 2×10^9 bacteria/mL. Dilute 1/10 in D-PBS to obtain a final bacterial concentration of 2×10^8 bacteria/mL (=107 bacteria/50 μL). Perform 1/10 serial dilutions in LB of each bacterial suspension, plate 10 μL of dilutions on LB agar plates (final dilutions of 10^−7) and incubate overnight at 37° C. and count CFUs to determine the actual bacteria density in the assay.\nBacterial binding assay: Add 147 μL 2× binding buffer to compound plate (containing 3 μL of compound). After blocking step is performed (at least 45 min), wash plates three times with 200 μL/well of D-PBS. With a 100 μL multichannel manual pipettor, add 50 μL/well of compound diluted in 2× binding buffer. With a 100 μL multichannel manual pipettor, add 50 μL/well of bacterial suspension. Agitate at slow speed for 1 min and incubate 40-75 min at room temperature. Wash 5 times with 150 μL/well of washing buffer and then once with D-PBS. Add 100 μL/well of 1× Bright-Glo Luciferase substrate. […]", "units": {"IC50": "nM"}, "values": [{"smiles": "OC[C@H]1O[C@@]2(CCc3cc(O)ccc3O2)[C@@H](O)[C@@H](O)[C@@H]1O", "note": "[Example 124, (2R,3′S,4′S,5′S,6′R)-6′-(hydroxymethyl)spiro[chromane-2,2′-tetrahydropyran]-3′,4′,5′,6-tetrol]", "IC50": "650 ± 550"}, {"smiles": "Cc1cc(-c2ccc(F)cc2F)ccc1O[C@H]1O[C@H](CO)[C@@H](O)[C@H](O)[C@]1(C)O", "note": "[Compound 75]", "IC50": "38 ± 18"}, {"smiles": "Cc1cc(-c2cc(-c3ccc(O[C@H]4O[C@H](CO)[C@@H](O)[C@H](O)[C@]4(C)O)c(C)c3)cc(-c3ccc(O[C@H]4O[C@H](CO)[C@@H](O)[C@H](O)[C@]4(C)O)c(C)c3)c2)ccc1O[C@H]1O[C@H](CO)[C@@H](O)[C@H](O)[C@]1(C)O", "note": "[Example 118, (2R,3S,4S,5S,6R)-2-[4-[3,5-bis[3-methyl-4-[(2R,3S,4S,5S,6R)-3,4,5-trihydroxy-6-(hydroxymethyl)-3-methyl-tetrahydropyran-2-yl]oxy-phenyl]phenyl]-2-methyl-phenoxy]-6-(hydroxymethyl)-3-methyl-tetrahydropyran-3,4,5-triol]", "IC50": "2 ± 0.7"}, {"smiles": "Cc1cc(-c2cccc(C(=O)N3CCCC3)c2)ccc1O[C@H]1O[C@H](CO)[C@@H](O)[C@H](O)[C@]1(C)O", "note": "[Compound 70]", "IC50": "30 ± 1"}, {"smiles": "Cc1cc(C#Cc2ccc(O[C@H]3O[C@H](CO)[C@@H](O)[C@H](O)[C@]3(C)O)c(C)c2)ccc1O[C@H]1O[C@H](CO)[C@@H](O)[C@H](O)[C@]1(C)O", "note": "[Example 117, (2R,3S,4S,5S,6R)-6-(hydroxymethyl)-3-methyl-2-[2-methyl-4-[2-[3-methyl-4-[(2R,3S,4S,5S,6R)-3,4,5-trihydroxy-6-(hydroxymethyl)-3-methyl-tetrahydropyran-2-yl]oxy-phenyl]ethynyl]phenoxy]tetrahydropyran-3,4,5-triol]", "IC50": "15 ± 8"}, {"smiles": "COc1cc(Cl)cc(-c2ccc(O[C@H]3O[C@H](CO)[C@@H](O)[C@H](O)[C@]3(C)O)c(C)c2)c1", "note": "[Compound 80]", "IC50": "55 ± 15"}, {"smiles": "COc1ccc(-c2ccc(O[C@H]3O[C@H](CO)[C@@H](O)[C@H](O)[C@]3(C)O)c(C)c2)cc1Cl", "note": "[Compound 96]", "IC50": "20 ± 9"}, {"smiles": "CNC(=O)c1cccc(-c2ccc(O[C@H]3O[C@H]([C@H](C)O)[C@@H](O)[C@H](O)[C@@H]3O)c(C)c2)c1", "note": "[compound 27]", "IC50": "165 ± 49"}, {"smiles": "Cc1cc(-c2cc(F)cc(Cl)c2)ccc1O[C@H]1O[C@H](CO)[C@@H](O)[C@H](O)[C@]1(C)O", "note": "[Compound 78]", "IC50": "94 ± 6"}, {"smiles": "CNC(=O)c1cccc(-c2ccc3c(c2)CC[C@]2(O3)O[C@H](CO)[C@@H](O)[C@H](O)[C@@H]2O)c1", "note": "[compound 33]", "IC50": "27 ± 8"}, {"smiles": "Cc1cc(-c2cccc(S(=O)(=O)NC(C)(C)C)c2)ccc1O[C@H]1O[C@H](CO)[C@@H](O)[C@H](O)[C@]1(C)O", "note": "[Compound 86]", "IC50": "26 ± 8"}, {"smiles": "CC(C)c1cc(-c2ccc(O[C@H]3O[C@H](CO)[C@@H](O)[C@H](O)[C@]3(C)O)c(C(C)C)c2)ccc1O[C@H]1O[C@H](CO)[C@@H](O)[C@H](O)[C@]1(C)O", "note": "[Example 115, (2R,3S,4S,5S,6R)-6-(hydroxymethyl)-2-[2-isopropyl-4-[3-isopropyl-4-[(2R,3S,4S,5S,6R)-3,4,5-trihydroxy-6-(hydroxymethyl)-3-methyl-tetrahydropyran-2-yl]oxy-phenyl]phenoxy]-3-methyl-tetrahydropyran-3,4,5-triol]", "IC50": "4 ± 0.6"}, {"smiles": "CNC(=O)c1cccc(-c2ccc(O[C@H]3O[C@H](CO)[C@@H](O)[C@H](O)[C@]3(C)O)cc2)c1", "note": "[Example 14, N-methyl-3-[4-[(2R,3S,4S,5S,6R)-3,4,5-trihydroxy-6-(hydroxymethyl)-3-methyl-tetrahydropyran-2-yl]oxyphenyl]benzamide]", "IC50": "132 ± 44"}, {"smiles": "COc1cc(-c2ccc(O[C@H]3O[C@H](CO)[C@@H](O)[C@H](O)[C@]3(C)O)c(OC)c2)ccc1O[C@H]1O[C@H](CO)[C@@H](O)[C@H](O)[C@]1(C)O", "note": "[Example 109, (2R,3S,4S,5S,6R)-6-(hydroxymethyl)-2-[2-methoxy-4-[3-methoxy-4-[(2R,3S,4S,5S,6R)-3,4,5-trihydroxy-6-(hydroxymethyl)-3-methyl-tetrahydropyran-2-yl]oxy-phenyl]phenoxy]-3-methyl-tetrahydropyran-3,4,5-triol]", "IC50": "8 ± 4"}, {"smiles": "CNC(=O)c1cccc(-c2ccc(O[C@H]3O[C@H](CO)[C@@H](O)[C@H](O)[C@@]3(O)CO)c(C)c2)c1", "note": "[Compound 24]", "IC50": "19 ± 3"}, {"smiles": "CNC(=O)c1cccc(-c2ccc(O[C@H]3O[C@H](CO)[C@@H](O)[C@](C)(O)[C@@H]3O)c(C)c2)c1", "note": "[compound 25]", "IC50": "68 ± 18"}, {"smiles": "O=[N+]([O-])c1cccc(-c2ccc3c(c2)CC[C@]2(O3)O[C@H](CO)[C@@H](O)[C@H](O)[C@@H]2O)c1", "note": "[Compound 34]", "IC50": "79 ± 31"}, {"smiles": "Cc1cc(-c2cccc(C(=O)NC(C)(CO)CO)c2)ccc1O[C@H]1O[C@H](CO)[C@@H](O)[C@H](O)[C@]1(C)O", "note": "[Compound 61]", "IC50": "22 ± 6"}, {"smiles": "Cc1cc(-c2cccc(C(=O)N(C)C)c2)ccc1O[C@H]1O[C@H](CO)[C@@H](O)[C@H](O)[C@]1(C)O", "note": "[Compound 83]", "IC50": "19 ± 6"}, {"smiles": "CNC(=O)c1cccc(-c2ccc(O[C@H]3O[C@H](CO)[C@@H](O)[C@H](O)[C@]3(C)O)cc2Cl)c1", "note": "[Compound 40]", "IC50": "220 ± 110"}, {"smiles": "Cc1cc(-c2cccc(C(=O)N[C@@H](CO)C(=O)O)c2)ccc1O[C@H]1O[C@H](CO)[C@@H](O)[C@H](O)[C@]1(C)O", "note": "[Compound 69]", "IC50": "30 ± 12"}, {"smiles": "Cc1cc(-c2ccc(O[C@H]3O[C@H](CO)[C@@H](O)[C@H](O)[C@]3(C)O)c(C)c2)ccc1O[C@H]1O[C@H](CO)[C@@H](O)[C@H](O)[C@]1(C)O", "note": "[Compound 105, (2R,3S,4S,5S,6R)-6-(hydroxymethyl)-3-methyl-2-[2-methyl-4-[3-methyl-4-[(2R,3S,4S,5S,6R)-3,4,5-trihydroxy-6-(hydroxymethyl)-3-methyl-tetrahydropyran-2-yl]oxy-phenyl]phenoxy]tetrahydropyran-3,4,5-triol]", "IC50": "6 ± 2"}, {"smiles": "Cc1cc(-c2cccc(C(=O)NCCN(C)C)c2)ccc1O[C@H]1O[C@H](CO)[C@@H](O)[C@H](O)[C@]1(C)O", "note": "[Compound 67]", "IC50": "15 ± 6"}, {"smiles": "COc1cc(F)ccc1-c1ccc(O[C@H]2O[C@H](CO)[C@@H](O)[C@H](O)[C@]2(C)O)c(C)c1", "note": "[Compound 91]", "IC50": "92 ± 27"}, {"smiles": "CNC(=O)c1cc(-c2ccc(O[C@H]3O[C@H](CO)[C@@H](O)[C@H](O)[C@]3(C)O)c(Cl)c2)ccc1F", "note": "[Compound 55]", "IC50": "20 ± 0.5"}, {"smiles": "CNC(=O)c1cc(F)cc(-c2ccc(O[C@H]3O[C@H](CO)[C@@H](O)[C@H](O)[C@]3(C)O)c(C)c2)c1", "note": "[Compound 73]", "IC50": "16 ± 5"}, {"smiles": "Cc1cc(-c2cc(F)cc(C(=O)N3CCOCC3)c2)ccc1O[C@H]1O[C@H](CO)[C@@H](O)[C@H](O)[C@]1(C)O", "note": "[Compound 103]", "IC50": "18 ± 8"}]}]}
